Measured values: US12110295B2, “WD40 repeat domain protein 5 (WDR5) degradation/disruption compounds and methods of use” (Icahn School of Medicine at Mount Sinai, priority 2018, dated 2024)

Biological target: WDR5 (Homo sapiens, UniProt P61964)
Test: Screening of putative WDR5 degraders by Western blot in MV4;11 and/or MIAPACA2 cells
Assay type: cell-based
Set-up: After WDR5 degrader treatment, cells were collected and lysed; endogenous in cells; host or cells: MV4;11 and/or MIAPACA2
Settings: summary of screening, FIGS. 6-10
Procedure: MV4;11 cells were treated with DMSO or indicated compounds at 0.1 μM and 0.5 μM for 18 hours. […]. MIAPACA2 cells were treated with DMSO or indicated compounds at 0.5 μM and 1.0 μM for 18 hours.
MIAPACA2 cells were treated with DMSO or indicated compounds at 0.1 μM and 0.5 μM for 18 hours.
MIAPACA2 cells were treated with DMSO or indicated compounds at 0.5 μM and 1.0 μM or at 1.0 μM and 10 μM for 18 hours.
MV4;11 cells were treated with DMSO or indicated compounds at 0.1 μM and 1.0 μM for 18 hours.
WDR5 degraders were dissolved in DMSO and DMSO with no degraders was used as the control. 1×10^6 MV4;11 cells or 1×10^5 MIAPACA2 or 2×10^5 Hela cells were seeded in 2 mL medium for each well in […].
For prescreening of all the compounds, each test compound was added to the medium at indicated concentrations. After 18 h treatment, cells were collected.
After WDR5 degrader treatment, cells were collected and lysed. Total cell lysates were used for western blot. The following primary antibodies were used: WDR5 (Santa Cruz), vinculin (Cell Signaling Technology), tubulin (Cell Signaling Technology), GAPDH (Santa Cruz). Blots were imaged using fluorescence-labeled secondary antibodies on ChemiDoc™ Imaging Systems.

SMILES	effective degradation of WDR5 in MV4;11 and/or MIAPACA2 cells
C[C@@H]1CN(c2ccc(-c3cc(CN4CCN(CCNC(=O)CCCCCCNc5cccc6c5C(=O)N(C5CCC(=O)NC5=O)C6=O)CC4)ccc3F)cc2NC(=O)c2c[nH]c(=O)cc2C(F)(F)F)C[C@H](C)N1C (stereo partly drawn) [XF078-23, N-(5′-((4-(2-(7-((2-(2,6-dioxopiperidin-3-yl)-1,3-dioxoisoindolin-4-yl)amino)heptanamido)ethyl)piperazin-1-yl)methyl)-2′-fluoro-4-((3S,5R)-3,4,5-trimethylpiperazin-1-yl)-[1,1′-biphenyl]-3-yl)-6-oxo-4-(trifluoromethyl)-1,6-dihydropyridine-3-carboxamide]	able to effectively degrade WDR5
C[C@@H]1CN(c2ccc(-c3cc(CN4CCN(CCNC(=O)CCOCCOCCNc5cccc6c5C(=O)N(C5CCC(=O)NC5=O)C6=O)CC4)ccc3F)cc2NC(=O)c2c[nH]c(=O)cc2C(F)(F)F)C[C@H](C)N1C (stereo partly drawn) [XF078-26, N-(5′-((4-(2-(3-(2-(2-((2-(2,6-dioxopiperidin-3-yl)-1,3-dioxoisoindolin-4-yl)amino)ethoxy)ethoxy)propanamido)ethyl)piperazin-1-yl)methyl)-2′-fluoro-4-((3S,5R)-3,4,5-trimethylpiperazin-1-yl)-[1,1′-biphenyl]-3-yl)-6-oxo-4-(trifluoromethyl)-1,6-dihydropyridine-3-carboxamide]	able to effectively degrade WDR5
C[C@@H]1CN(c2ccc(-c3cc(CN4CCN(CCNC(=O)CCOCCOCCOCCOCCNc5cccc6c5C(=O)N(C5CCC(=O)NC5=O)C6=O)CC4)ccc3F)cc2NC(=O)c2c[nH]c(=O)cc2C(F)(F)F)C[C@H](C)N1C (stereo partly drawn) [XF078-28, N-(5′-((4-(1-((2-(2,6-dioxopiperidin-3-yl)-1,3-dioxoisoindolin-4-yl)amino)-15-oxo-3,6,9,12-tetraoxa-16-azaoctadecan-18-yl)piperazin-1-yl)methyl)-2′-fluoro-4-((3S,5R)-3,4,5-trimethylpiperazin-1-yl)-[1,1′-biphenyl]-3-yl)-6-oxo-4-(trifluoromethyl)-1,6-dihydropyridine-3-carboxamide]	able to effectively degrade WDR5
C[C@@H]1CN(c2ccc(-c3cc(CN4CCN(CCNC(=O)CCOCCOCCOCCOCCOCCNc5cccc6c5C(=O)N(C5CCC(=O)NC5=O)C6=O)CC4)ccc3F)cc2NC(=O)c2c[nH]c(=O)cc2C(F)(F)F)C[C@H](C)N1C (stereo partly drawn) [XF078-29, N-(5′-((4-(1-((2-(2,6-dioxopiperidin-3-yl)-1,3-dioxoisoindolin-4-yl)amino)-18-oxo-3,6,9,12,15-pentaoxa-19-azahenicosan-21-yl)piperazin-1-yl)methyl)-2′-fluoro-4-((3S,5R)-3,4,5-trimethylpiperazin-1-yl)-[1,1′-biphenyl]-3-yl)-6-oxo-4-(trifluoromethyl)-1,6-dihydropyridine-3-carboxamide]	able to effectively degrade WDR5
Cc1ncsc1-c1ccc(CNC(=O)[C@@H]2C[C@@H](O)CN2C(=O)[C@@H](NC(=O)COCC(=O)N2CC=C(c3cc(NC(=O)c4c[nH]c(=O)cc4C(F)(F)F)c(N4C[C@@H](C)N(C)[C@@H](C)C4)cc3F)CC2)C(C)(C)C)cc1 [XF078-30, N-(4-fluoro-5-(1-(2-(2-(((S)-1-((2S,4R)-4-hydroxy-2-((4-(4-methylthiazol-5-yl)benzyl)carbamoyl)pyrrolidin-1-yl)-3,3-dimethyl-1-oxobutan-2-yl)amino)-2-oxoethoxy)acetyl)-1,2,3,6-tetrahydropyridin-4-yl)-2-((3S,5R)-3,4,5-trimethylpiperazin-1-yl)phenyl)-6-oxo-4-(trifluoromethyl)-1,6-dihydropyridine-3-carboxamide]	able to effectively degrade WDR5
Cc1ncsc1-c1ccc(CNC(=O)[C@@H]2C[C@@H](O)CN2C(=O)[C@@H](NC(=O)CCCCC(=O)N2CC=C(c3cc(NC(=O)c4c[nH]c(=O)cc4C(F)(F)F)c(N4C[C@@H](C)N(C)[C@@H](C)C4)cc3F)CC2)C(C)(C)C)cc1 [XF078-41, N-(4-fluoro-5-(1-(6-(((S)-1-((2S,4R)-4-hydroxy-2-((4-(4-methylthiazol-5-yl)benzyl)carbamoyl)pyrrolidin-1-yl)-3,3-dimethyl-1-oxobutan-2-yl)amino)-6-oxohexanoyl)-1,2,3,6-tetrahydropyridin-4-yl)-2-((3S,5R)-3,4,5-trimethylpiperazin-1-yl)phenyl)-6-oxo-4-(trifluoromethyl)-1,6-dihydropyridine-3-carboxamide]	able to effectively degrade WDR5

Second part, the compound after the results:

effective degradation of WDR5 in MV4;11 and/or MIAPACA2 cells	SMILES
able to effectively degrade WDR5	C[C@@H]1CN(c2ccc(-c3cc(CN4CCN(CCNC(=O)CCCCCNc5cccc6c5C(=O)N(C5CCC(=O)NC5=O)C6=O)CC4)ccc3F)cc2NC(=O)c2c[nH]c(=O)cc2C(F)(F)F)C[C@H](C)N1C (stereo partly drawn) [XF078-22, N-(5′-((4-(2-(6-((2-(2,6-dioxopiperidin-3-yl)-1,3-dioxoisoindolin-4-yl)amino)hexanamido)ethyl)piperazin-1-yl)methyl)-2′-fluoro-4-((3S,5R)-3,4,5-trimethylpiperazin-1-yl)-[1,1′-biphenyl]-3-yl)-6-oxo-4-(trifluoromethyl)-1,6-dihydropyridine-3-carboxamide]
able to effectively degrade WDR5	C[C@@H]1CN(c2ccc(-c3cc(CN4CCN(CCNC(=O)CCCCCCCNc5cccc6c5C(=O)N(C5CCC(=O)NC5=O)C6=O)CC4)ccc3F)cc2NC(=O)c2c[nH]c(=O)cc2C(F)(F)F)C[C@H](C)N1C (stereo partly drawn) [XF078-24, N-(5′-((4-(2-(8-((2-(2,6-dioxopiperidin-3-yl)-1,3-dioxoisoindolin-4-yl)amino)octanamido)ethyl)piperazin-1-yl)methyl)-2′-fluoro-4-((3S,5R)-3,4,5-trimethylpiperazin-1-yl)-[1,1′-biphenyl]-3-yl)-6-oxo-4-(trifluoromethyl)-1,6-dihydropyridine-3-carboxamide]
able to effectively degrade WDR5	C[C@@H]1CN(c2ccc(-c3cc(CN4CCN(CCNC(=O)CCOCCNc5cccc6c5C(=O)N(C5CCC(=O)NC5=O)C6=O)CC4)ccc3F)cc2NC(=O)c2c[nH]c(=O)cc2C(F)(F)F)C[C@H](C)N1C (stereo partly drawn) [XF078-25, N-(5′-((4-(2-(3-(2-((2-(2,6-dioxopiperidin-3-yl)-1,3-dioxoisoindolin-4-yl)amino)ethoxy)propanamido)ethyl)piperazin-1-yl)methyl)-2′-fluoro-4-((3S,5R)-3,4,5-trimethylpiperazin-1-yl)-[1,1′-biphenyl]-3-yl)-6-oxo-4-(trifluoromethyl)-1,6-dihydropyridine-3-carboxamide]
able to effectively degrade WDR5	C[C@@H]1CN(c2ccc(-c3cc(CN4CCN(CCNC(=O)CCOCCOCCOCCNc5cccc6c5C(=O)N(C5CCC(=O)NC5=O)C6=O)CC4)ccc3F)cc2NC(=O)c2c[nH]c(=O)cc2C(F)(F)F)C[C@H](C)N1C (stereo partly drawn) [XF078-27, N-(5′-((4-(1-((2-(2,6-dioxopiperidin-3-yl)-1,3-dioxoisoindolin-4-yl)amino)-12-oxo-3,6,9-trioxa-13-azapentadecan-15-yl)piperazin-1-yl)methyl)-2′-fluoro-4-((3S,5R)-3,4,5-trimethylpiperazin-1-yl)-[1,1′-biphenyl]-3-yl)-6-oxo-4-(trifluoromethyl)-1,6-dihydropyridine-3-carboxamide]
